For assay [1], the target named is T1, Angiotensin-converting enzyme (Oryctolagus cuniculus, UniProt P12822).
T1 sequence (P12822 whole entry): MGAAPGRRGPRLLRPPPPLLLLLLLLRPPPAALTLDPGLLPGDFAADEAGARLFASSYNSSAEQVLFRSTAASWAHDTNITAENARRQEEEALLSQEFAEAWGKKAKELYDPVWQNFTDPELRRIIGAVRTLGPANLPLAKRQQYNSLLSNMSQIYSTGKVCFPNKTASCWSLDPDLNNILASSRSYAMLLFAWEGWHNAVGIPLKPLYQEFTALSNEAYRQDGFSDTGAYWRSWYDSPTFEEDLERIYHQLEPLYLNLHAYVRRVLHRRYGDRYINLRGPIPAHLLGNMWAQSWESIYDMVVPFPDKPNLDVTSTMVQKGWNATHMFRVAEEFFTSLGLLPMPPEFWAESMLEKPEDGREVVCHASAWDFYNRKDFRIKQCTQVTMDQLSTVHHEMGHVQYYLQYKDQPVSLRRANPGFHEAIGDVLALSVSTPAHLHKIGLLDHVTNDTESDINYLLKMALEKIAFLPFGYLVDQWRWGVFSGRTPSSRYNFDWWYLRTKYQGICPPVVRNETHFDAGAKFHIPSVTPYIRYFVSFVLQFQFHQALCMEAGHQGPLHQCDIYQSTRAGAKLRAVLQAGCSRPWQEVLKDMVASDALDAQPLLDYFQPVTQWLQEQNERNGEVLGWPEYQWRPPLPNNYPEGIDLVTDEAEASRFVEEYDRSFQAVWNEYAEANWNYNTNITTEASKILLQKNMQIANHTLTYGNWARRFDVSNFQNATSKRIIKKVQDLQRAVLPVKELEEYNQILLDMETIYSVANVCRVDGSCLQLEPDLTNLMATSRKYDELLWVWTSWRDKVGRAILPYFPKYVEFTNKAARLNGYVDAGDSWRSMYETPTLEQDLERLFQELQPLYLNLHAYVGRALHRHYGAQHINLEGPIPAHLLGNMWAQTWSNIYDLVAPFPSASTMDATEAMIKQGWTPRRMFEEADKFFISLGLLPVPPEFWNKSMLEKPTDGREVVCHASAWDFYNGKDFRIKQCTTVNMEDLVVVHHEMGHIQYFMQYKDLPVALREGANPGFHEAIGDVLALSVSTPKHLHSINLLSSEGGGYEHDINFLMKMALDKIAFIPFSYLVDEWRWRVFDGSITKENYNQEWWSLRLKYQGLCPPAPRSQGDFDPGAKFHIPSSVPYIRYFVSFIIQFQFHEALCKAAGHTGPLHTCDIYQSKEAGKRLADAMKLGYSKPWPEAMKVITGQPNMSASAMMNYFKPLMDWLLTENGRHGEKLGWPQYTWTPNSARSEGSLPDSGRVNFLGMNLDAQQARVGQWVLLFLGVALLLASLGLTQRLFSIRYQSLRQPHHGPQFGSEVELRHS
The assay is described as follows: In vitro inhibition of rabbit lung Angiotensin I converting enzyme (ACE) using Hippuryl-His-Leu as substrate.

For the next assay, the target named is T2, Neprilysin (Rattus norvegicus, UniProt P07861).
T2 sequence (P07861 whole entry): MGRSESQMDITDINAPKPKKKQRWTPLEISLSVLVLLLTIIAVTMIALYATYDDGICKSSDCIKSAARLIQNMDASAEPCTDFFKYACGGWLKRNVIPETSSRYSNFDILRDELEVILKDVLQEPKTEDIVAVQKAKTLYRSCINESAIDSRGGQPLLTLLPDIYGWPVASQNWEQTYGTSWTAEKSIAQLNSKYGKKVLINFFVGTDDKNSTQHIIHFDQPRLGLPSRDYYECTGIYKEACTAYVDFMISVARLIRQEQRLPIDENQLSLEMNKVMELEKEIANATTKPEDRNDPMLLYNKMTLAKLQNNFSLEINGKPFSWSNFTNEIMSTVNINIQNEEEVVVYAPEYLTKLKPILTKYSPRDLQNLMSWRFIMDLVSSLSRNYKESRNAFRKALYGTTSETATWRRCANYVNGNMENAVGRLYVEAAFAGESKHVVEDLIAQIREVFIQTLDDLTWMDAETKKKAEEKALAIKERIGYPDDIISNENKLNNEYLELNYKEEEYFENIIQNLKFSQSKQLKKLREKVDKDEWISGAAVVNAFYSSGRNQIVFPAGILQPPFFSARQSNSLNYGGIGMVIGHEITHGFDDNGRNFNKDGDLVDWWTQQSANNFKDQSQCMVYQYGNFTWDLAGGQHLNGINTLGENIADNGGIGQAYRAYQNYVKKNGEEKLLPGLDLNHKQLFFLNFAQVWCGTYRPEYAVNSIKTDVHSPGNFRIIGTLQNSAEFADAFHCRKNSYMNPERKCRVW
The assay is described as follows: In vitro inhibition of rat kidney neutral endopeptidase (NEP) by fluorometric assay using Dansyl-Gly-Phe-Arg as substrate.

For assay [2], the system named is Rattus norvegicus. The assay is described as follows: In vivo inhibition of angiotensin I-induced pressor response after iv administration in normotensive rats. Type of assay: functional.
The test system of assay [3] is Rattus norvegicus. The assay is described as follows: In vivo inhibition of angiotensin- 1 induced pressor response after iv administration in normotensive rats. Type of assay: functional.

A value given as a limit tells only on which side of the number the result lay.

`C[C@H](NC(=O)C(CS)CCc1ccccc1)C(=O)N1CCC[C@@H]1C(=O)O` (stereo not given in full): the IC50 (in general, the point on the concentration scale where inhibition reaches its midpoint) was 290 nM in assay [1] and 160 nM against Neprilysin.
As for `CC(C)C[C@H](NC(=O)[C@@H](CS)Cc1ccccc1)C(=O)O`, the IC50 in assay [1] was found to be 37 nM.
For the compound `Cc1ccccc1C[C@H](CS)C(=O)N[C@@H](C)C(=O)N1CCC[C@@H]1C(=O)O`, the IC50 in assay [1] came to 69 nM; at Neprilysin it was 6.2 nM. Besides, the ED50 (as a rule, the dose that gives a 50% effect, or the effect in half of the subjects) in the assay with Rattus norvegicus [2] was determined as 4.2 µmol/kg.
Compound `C[C@H](NC(=O)[C@@H](CS)Cc1ccccc1)C(=O)O` gave an IC50 in assay [1] of 120 nM. In the assay on Rattus norvegicus [3], this compound gave a 50% effective dose (ED50) of 15 µmol/kg.
On to `C[C@H](NC(=O)[C@@H](CS)Cc1ccc(OCc2ccccc2)cc1)C(=O)N1CCC[C@@H]1C(=O)O`, for which the figures for the 50% inhibitory concentration (IC50) (in assay [1]; against Neprilysin) were 880 nM and 40 nM, respectively.
Turning to `C[C@H](NC(=O)[C@@H](CS)Cc1ccccc1)C(=O)N1C[C@@H](Sc2ccccc2)C[C@H]1C(=O)O`, the IC50 came to 8.7 nM in assay [1] and 1.6 nM at Neprilysin. In addition, it took a dose of 0.78 µmol/kg to reach the 50% effect level in the assay on Rattus norvegicus [2] (ED50).
For `CCC[C@H](NC(=O)[C@@H](CS)Cc1ccccc1)C(=O)N1CCC[C@H]1C(=O)O`, the 50% inhibitory concentration (IC50) amounted to 10 nM in assay [1] and 2 nM against Neprilysin. For the same compound, in the assay on Rattus norvegicus [2], the median effective dose (ED50) came out at 2.2 µmol/kg.
For the compound `C[C@H](NC(=O)[C@@H](CS)Cc1ccccc1)C(=O)N1C[C@H](C2CCCCC2)C[C@H]1C(=O)O`, the IC50 in assay [1] came out at 18 nM; against Neprilysin, 6.6 nM. In the assay with Rattus norvegicus [2], this compound gave an ED50 of 2.5 µmol/kg.
The corresponding values for `O=C(N[C@@H](Cc1c[nH]c2ccccc12)C(=O)N1CCC[C@H]1C(=O)O)[C@@H](CS)Cc1ccccc1` are 10 nM, 25 nM and 6.4 µmol/kg.
For the compound `CC(C)CC(CS)C(=O)N[C@@H](C)C(=O)N1CCC[C@@H]1C(=O)O` (stereo not given in full), the IC50 in assay [1] turned out to be 490 nM; against Neprilysin it was 10 nM.
Consider `C[C@H](NC(=O)[C@H](Cc1ccccc1)[C@@H](C)S)C(=O)N1CCC[C@H]1C(=O)O`, for which the IC50 came to 78 nM in assay [1] and 182 nM on Neprilysin. The same compound came in with a 50% effective dose (ED50) in the assay on Rattus norvegicus [2] above 5 µmol/kg.
The corresponding values for `C[C@H](NC(=O)[C@@H](CS)Cc1ccccc1)C(=O)N1Cc2ccccc2C[C@H]1C(=O)O` are 14 nM, 3.9 nM and 0.57 µmol/kg.
Consider `C[C@H](CS)C(=O)N[C@@H](C)C(=O)N1CCC[C@@H]1C(=O)O`, for which the IC50 was found to be 1800 nM in assay [1] and 140 nM against Neprilysin.
Take `C[C@H](NC(=O)[C@@H](CS)Cc1ccccc1)C(=O)N1CCC[C@H]1C(=O)O`: the 50% inhibitory concentration (IC50) in assay [1] was determined as 4 nM; on Neprilysin it was 6.6 nM. Also, the median effective dose (ED50) in the assay on Rattus norvegicus [2] was found to be 0.5 µmol/kg.
`O=C(O)CCNC(=O)[C@@H](CS)Cc1ccccc1`: the values for the half-maximal inhibitory concentration (IC50) (in assay [1]; against Neprilysin) were 32000 nM and 9.4 nM, respectively.
Regarding `C[C@H](NC(=O)[C@@H](CS)Cc1ccccc1)C(=O)N1c2ccccc2C[C@H]1C(=O)O`, the IC50 is 7.8 nM in assay [1] and 2.6 nM on Neprilysin. The same compound came in with an ED50 in the assay on Rattus norvegicus [2] of 0.15 µmol/kg.
As to `C[C@H](NC(=O)[C@H](S)Cc1ccccc1)C(=O)N1CCC[C@H]1C(=O)O`, the IC50 in assay [1] is 80 nM; against Neprilysin, 285 nM. For the same compound, the 50% effective dose (ED50) with Rattus norvegicus [2] was determined as 0.03 µmol/kg.
`C[C@H](NC(=O)[C@H](Cc1ccccc1)[C@H](C)S)C(=O)N1CCC[C@H]1C(=O)O`: the values for the 50% inhibitory concentration (IC50) (in assay [1]; against Neprilysin) were 452 nM and 32 nM, respectively.
As for `C[C@H](NC(=O)[C@@H](S)Cc1ccccc1)C(=O)N1CCC[C@H]1C(=O)O`, the IC50 in assay [1] turned out to be 30 nM; on Neprilysin it was 400 nM. In the assay on Rattus norvegicus [2], this compound yielded an ED50 of 0.06 µmol/kg.
Compound `CC(C)C[C@H](NC(=O)[C@@H](S)Cc1ccccc1)C(=O)O` came in with an IC50 in assay [1] of 1600 nM.
In the case of `C[C@H](NC(=O)[C@H](CS)Cc1ccccc1)C(=O)N1CCC[C@H]1C(=O)O`, the IC50 amounted to 210 nM in assay [1] and 45 nM at Neprilysin. The same compound yielded a median effective dose (ED50) in the assay on Rattus norvegicus [2] of 8.1 µmol/kg.
The corresponding values for `C[C@H](NC(=O)[C@@H](CS)Cc1ccccc1Cl)C(=O)N1CCC[C@@H]1C(=O)O` are 25 nM, 2.2 nM and 2.6 µmol/kg.

(Values after ChEMBL document CHEMBL1127936, “Mercaptoacyl dipeptides as dual inhibitors of angiotensin-converting enzyme and neutral endopeptidase. Preliminary structure-activity studies” (Bioorg Med Chem Lett, 1994).)
